The results in this text go back to PubChem BioAssay (NCI).

SMILES strings stand for the structures. Where “and” joins values, the source holds several entries; their conditions need not be identical. Equal entries are not always repeated.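 Compound exposure: 48 hours, 5 concentrations, 96-well plates. GI50 = concentration required for 50% inhibition of growth. TGI denotes the concentration required for complete inhibition of growth.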

The test system of the assay is MDA-MB-468 breast. The experiment in a line: inhibition of tumour cell growth, NCI panel, 48 h.
`O=C(CC(=O)c1cccc(Cl)c1)c1cccc(Cl)c1`: the GI50 was 1770 nM and the TGI was 8760 nM.
Regarding `Cc1c(C(N)=O)sc2c1c(=O)n(Cc1ccccc1)c1nnc(-c3ccc(Br)cc3)n21`, the GI50 is 2040 nM and the TGI was 6940 nM.
The corresponding values for `Nc1nc(=O)n([C@@H]2CS[C@H](CO)O2)cc1F` are above 100000 nM and above 100000 nM.
The corresponding values for `c1ccc([As]=[As]c2ccccc2)cc1` (centres undefined) are 541 nM and 2310 nM.
On the same counts, the results for `Cc1ccc(-c2nc([P+](c3ccccc3)(c3ccccc3)c3ccccc3)c(Nc3ccccc3)o2)cc1` are 232 nM and 719 nM.
Consider `O=S(=O)(Nc1ccc(F)c(Cl)c1)c1ccc(-c2cnc(C3CC3)o2)cc1`, for which the GI50 is 98.2 nM and the TGI came out at 1630 nM.
On the same counts, the results for `CCS(=O)(=O)c1ccc(OC)c(Nc2ncc(-c3ccccc3Cl)o2)c1` are 6530 nM and 19600 nM.
Turning to `CN1CCN(CCOc2cc(OC3CCOCC3)c3c(Nc4c(Cl)ccc5c4OCO5)ncnc3c2)CC1`, the GI50 was 773 nM and 548 nM; the TGI was 3490 nM and 7540 nM.
`COc1cccc(C2C3=C(COC3=O)N(CCO)c3cc4c(cc32)OCO4)c1` (centres undefined): the GI50 was 131 nM.
On to `CCOC(=O)/C=C/C(=O)[C@H](CC(C)C)NC(=O)[C@H](Cc1ccccc1)NC(=O)OCc1ccccc1`, for which the GI50 was 2360 nM and the TGI turned out to be 5070 nM.
The corresponding values for `O=C(Nc1ccccc1O)c1ccc(NS(=O)(=O)c2cccc3cccnc23)cc1` are 679 nM and 3750 nM.
On the same counts, the results for `C[C@@H]1COCCN1c1cc(C2([S@@](C)(=N)=O)CC2)nc(-c2ccnc3[nH]ccc23)n1` are 2730 nM and 25600 nM.
Take `Cc1cc(Nc2cc(N3CCN(C)CC3)nc(Sc3ccc(NC(=O)C4CC4)cc3)n2)n[nH]1`: the GI50 is 240 nM and the TGI was above 10000 nM.
On the same counts, the results for `C#COc1cccc(Nc2ncnc3cc(NC(=O)[C@H](C)Cl)ccc23)c1` are 11700 nM and 61000 nM.
The corresponding values for `Cc1ccc(NCCN(C)C)c2c(=O)c3ccccc3sc12` are 1670 nM and 3260 nM.
Turning to `COc1ccc(C2C=C(c3ccc(Cl)cc3)N=C3SC=C(C)N32)c(Br)c1` (centres undefined), the GI50 was 1910 nM and the TGI was 6130 nM.
On the same counts, the results for `COc1ccc(/C=C\c2cc(OC)c(OC)c(OC)c2)cc1OCC(=O)Nc1ccc2nc(C)sc2c1` are 2390 nM and 14000 nM.
As to `NC(=Nc1ccc(N)cc1)C(N)=Nc1ccc(N)cc1`, the GI50 was above 100000 nM and the TGI is above 100000 nM.
For `O=C(Nc1cc(Oc2cc(F)c(NC(=O)C3(C(=O)Nc4ccc(F)cc4)CC3)cc2F)ccn1)C1CC1`, the GI50 was 3170 nM and the TGI came to 6140 nM.
On the same counts, the results for `COc1ccc(Cn2cc3c(c2-c2ccccc2)CCc2cnoc2-3)cc1N` are 39 nM and 385 nM.
In the case of `COc1cc2c(=O)n(CCN(C)C)c3c4cc5c(cc4ccc3c2cc1OC)OCO5`, the GI50 is 115 nM and the TGI worked out at 303 nM.
The corresponding values for `O=C(C[P+](c1ccccc1)(c1ccccc1)c1ccccc1)C[P+](c1ccccc1)(c1ccccc1)c1ccccc1` are 165 nM and 508 nM.
Consider `COc1ccccc1NS(=O)(=O)c1ccc2oc(SC(C)C)nc2c1`, for which the GI50 is 2380 nM and the TGI amounted to 17600 nM.
On the same counts, the results for `CCOC(=O)c1ccc2c(c1)[n+](=O)c(C(C)=O)c(C(F)(F)F)n2[O-]` are 1590 nM and 3290 nM.
The corresponding values for `Cc1cnc(Nc2ccc(N3CCN(C)CC3)cc2)nc1Nc1ccc(Cl)c(NS(=O)(=O)C(C)(C)C)c1` are 153 nM and 2200 nM.
The corresponding values for `NC(=S)N=Nc1c(O)c2ccccc2c2ccccc12` are 44300 nM and above 100000 nM.
Turning to `Cc1cc(Cl)ccc1Nc1nc(C(F)(F)F)ccc1C(=O)N/N=C/c1ccccc1Cl`, the GI50 is 1880 nM and the TGI was above 100000 nM.
The corresponding values for `Cc1ccc(-c2nc(-c3cn(C)c4ncccc34)cs2)cc1` are 2660 nM and 9920 nM.
For the compound `CCCCCCCC(=O)OCC(=O)[C@]1(O)Cc2c(O)c3c(c(O)c2[C@@H](OC2CC(N)C(O)C(C)O2)C1)C(=O)c1c(OC)cccc1C3=O` (some centres undefined), the GI50 was 39.8 nM and the TGI turned out to be 301 nM.
On the same counts, the results for `CCOC(=O)c1cnn2c3ccccc3n(S(=O)(=O)c3ccc(OC)cc3)c12` are 324 nM and above 100000 nM.
In the case of `COc1cccc(/C(C)=N/NC(=O)CSc2nc3ccccc3c(=O)n2CCc2ccc(S(N)(=O)=O)cc2)c1`, the GI50 is 3160 nM and the TGI stood at 8760 nM.
The corresponding values for `Nc1nc(N)c2cc(Sc3cccc(C(F)(F)F)c3)ccc2n1` are 1020 nM and 2550 nM.
On to `CNS(=O)(=O)OCC1OC(n2cnc3c(N)ncnc32)C(O)C1O` (centres undefined), for which the GI50 is 28900 nM and the TGI was above 100000 nM.
The corresponding values for `O=C(/C=C/C12c3ccccc3C(c3ccccc31)C1C(=O)NC(=O)C12)c1ccc(Cl)cc1` (centres undefined) are 1700 nM and 3470 nM.
On the same counts, the results for `COc1cc(C2C3=C(COC3=O)N(CCO)c3cc4c(cc32)OCO4)cc(OC)c1O` (centres undefined) are 819 nM and 2620 nM.
The corresponding values for `ClCc1cccc(CSc2ncnc3c2ncn3Cc2cccc(CCl)c2)c1` are 1300 nM and 2850 nM.
Regarding `CCOC(=O)c1c(NCC(=O)Nc2cccc([N+](=O)[O-])c2)sc2c1CCCC2`, the GI50 was 333 nM and the TGI came to 1430 nM.
The corresponding values for `COc1cc(/C=C/c2cc(/C=C/c3ccc(O)c(OC)c3)n(C(=O)Nc3ccc(Cl)cc3)n2)ccc1O` are 310 nM and 1820 nM.
On the same counts, the results for `COc1cc(NCCN=C(N)NC(N)=NC(C)C)c2ncccc2c1` are 162 nM and 603 nM.
`Cn1cc(-c2nn3cc(-c4ccncc4)nc3s2)c2cc(Cl)ccc21`: the GI50 is 2190 nM and the TGI was 7840 nM.
The corresponding values for `C=C1C(=O)O[C@H]2[C@H]1CC/C(COC(=O)NCCc1c[nH]c3ccc(Cl)cc13)=C\CC[C@@]1(C)O[C@@H]21` are 1650 nM and 3310 nM.
Turning to `CN1CCN(Cc2ccc3c(NNC(=O)c4ccccc4)nc4cc(F)ccc4n23)CC1`, the GI50 was 237 nM and the TGI stood at 1650 nM.
On the same counts, the results for `N#CN1CC[C@H](C(=O)Nc2cc3cc(C(N)=O)ccc3cn2)C1` are below 14.6 nM and 28.9 nM.
On the same counts, the results for `O=C(NCCNc1nccc(-c2c(-c3cccc(O)c3)nc3sccn23)n1)c1ccccc1` are 3600 nM and 28700 nM.
On the same counts, the results for `CC(=O)c1cc(C(=O)c2ccc3c(c2)Sc2ccccc2N3)c2c(C)cccn12` are 175 nM and above 96000 nM.
